One block for each substance: values may come before it.
Tests used:
Type in all cases: biochemical
[1] = biological target: T1, KDM4E (Homo sapiens, UniProt B2RXH2); assay: MALDI MS activity assay, recombinant KDM4E catalytic domain; details: peptide 10 μM, 1 h, 37 °C, MALDI-TOF MS; for observed arginine demethylation activity: KDM4E 2 μM, 2OG 200 μM, ascorbate 100 μM, Fe(II) 10 μM, 50 mM HEPES pH 7.5, −14 Da shift
T1 construct: His6 (N); made in house; host or cells: Escherichia coli
T1 sequence (B2RXH2 1-337): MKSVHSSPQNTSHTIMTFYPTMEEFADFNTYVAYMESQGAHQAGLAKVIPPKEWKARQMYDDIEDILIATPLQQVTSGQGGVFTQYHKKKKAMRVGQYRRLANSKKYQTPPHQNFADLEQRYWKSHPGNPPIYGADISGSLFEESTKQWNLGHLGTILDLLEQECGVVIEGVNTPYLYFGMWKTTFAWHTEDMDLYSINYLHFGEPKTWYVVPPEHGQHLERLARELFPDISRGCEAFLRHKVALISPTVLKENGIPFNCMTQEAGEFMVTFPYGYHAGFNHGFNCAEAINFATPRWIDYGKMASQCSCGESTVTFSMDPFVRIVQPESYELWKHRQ
Procedure: (§1) MALDI MS activity assays. Recombinant proteins (2 μM) were incubated with peptides (10 μM, sequences are given in Supplementary Table 1) and cofactors/substrates for 1 h at 37 °C, unless otherwise specified. Reactions were quenched with 1:1 (v/v) methanol and analysed with MALDI MS. Assay conditions for each enzyme are given in Supplementary Table 2. Negative controls without enzyme were included.
(§2) Supplementary Table 2 Assay conditions with truncated recombinant protein. […]

[2] = biological target: T2, KDM6B (Homo sapiens, UniProt O15054); assay: MALDI MS activity assay, recombinant KDM6B catalytic domain; details: KDM6B 2 μM, peptide 10 μM, 1 h, 37 °C, 2OG 100 μM, ascorbate 100 μM, Fe(II) 10 μM, 50 mM HEPES pH 7.5, 150 mM NaCl; MALDI-TOF MS, −14 Da shift
T2 construct: His6 (N); made in house; host or cells: Escherichia coli
T2 sequence (O15054 1141-1590 limits assumed): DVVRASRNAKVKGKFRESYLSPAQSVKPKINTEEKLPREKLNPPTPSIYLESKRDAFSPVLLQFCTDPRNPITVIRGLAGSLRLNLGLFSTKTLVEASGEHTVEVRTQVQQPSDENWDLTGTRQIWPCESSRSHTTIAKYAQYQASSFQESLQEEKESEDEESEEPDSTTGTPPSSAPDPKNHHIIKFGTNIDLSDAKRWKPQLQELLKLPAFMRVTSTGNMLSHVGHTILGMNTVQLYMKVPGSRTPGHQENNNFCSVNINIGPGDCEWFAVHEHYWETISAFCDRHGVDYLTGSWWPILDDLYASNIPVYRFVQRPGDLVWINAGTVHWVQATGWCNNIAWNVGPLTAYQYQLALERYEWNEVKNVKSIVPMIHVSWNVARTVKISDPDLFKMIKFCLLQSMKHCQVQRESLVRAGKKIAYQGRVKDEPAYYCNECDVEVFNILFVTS
Procedure: as §1
(§3) Supplementary Table 2 Assay conditions with truncated recombinant protein.
(§4) Supplementary Table 3 Assay conditions with full length Flag-tagged KDMs.

[3] = biological target: T3, KDM5C (Homo sapiens, UniProt P41229); assay: MALDI MS activity assay, recombinant KDM5C catalytic domain; details: peptide 10 μM, 1 h, 37 °C, MALDI-TOF MS; for observed arginine demethylation activity: KDM5C 2 μM, 2OG 100 μM, ascorbate 100 μM, Fe(II) 10 μM, 50 mM HEPES pH 7.5, −14 Da shift
T3 construct: KDM5C1–765 was produced as an N-terminally His6-tagged protein in Sf9 cells; His6 (N); made in house; host or cells: Sf9 cells (provided by the Structural Genomics Consortium)
T3 sequence (P41229 1-765): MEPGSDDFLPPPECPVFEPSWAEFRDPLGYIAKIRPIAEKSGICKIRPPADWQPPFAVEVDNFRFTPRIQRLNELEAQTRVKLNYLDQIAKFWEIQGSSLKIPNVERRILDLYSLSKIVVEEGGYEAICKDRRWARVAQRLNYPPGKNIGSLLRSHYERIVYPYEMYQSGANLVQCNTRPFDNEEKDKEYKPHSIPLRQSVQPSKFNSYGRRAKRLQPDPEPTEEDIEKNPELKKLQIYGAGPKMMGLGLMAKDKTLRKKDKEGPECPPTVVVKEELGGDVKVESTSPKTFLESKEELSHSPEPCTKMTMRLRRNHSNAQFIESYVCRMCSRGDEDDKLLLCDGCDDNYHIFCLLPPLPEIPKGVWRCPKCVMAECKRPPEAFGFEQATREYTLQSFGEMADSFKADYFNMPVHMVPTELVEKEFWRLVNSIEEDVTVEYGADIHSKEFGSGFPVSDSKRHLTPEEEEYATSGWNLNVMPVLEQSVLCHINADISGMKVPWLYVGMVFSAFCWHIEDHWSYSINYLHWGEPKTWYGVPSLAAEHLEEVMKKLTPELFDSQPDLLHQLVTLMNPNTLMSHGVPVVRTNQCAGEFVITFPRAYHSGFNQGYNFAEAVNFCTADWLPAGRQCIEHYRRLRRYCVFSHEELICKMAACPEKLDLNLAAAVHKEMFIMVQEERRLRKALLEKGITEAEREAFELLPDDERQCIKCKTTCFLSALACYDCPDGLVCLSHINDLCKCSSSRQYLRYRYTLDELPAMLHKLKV
Procedure: as §1, §2

[4] = biological target: T3, KDM5C; assay: Formaldehyde dehydrogenase-coupled demethylation assay, KDM5C
Procedure: (§5) Formaldehyde dehydrogenase-coupled assays. Preliminary kinetic parameters were determined by detection of the formaldehyde by-product of the demethylation reaction using a FDH (formaldehyde dehydrogenase-coupled)/NAD^+-coupled assay as previously described. Assays were carried out in buffer (enzyme-dependent) with the addition of Fe(II) ammonium sulfate (10 μM), sodium ascorbate (100 μM), 2OG (200 μM), NAD^+ (500 μM), enzyme (0.2–4 μM) and FDH enzyme (0.025 U per assay, Sigma-Aldrich; total volume 30 μl) and were conducted at 37 °C in clear-bottom black 384-well plates. […] The Km and Vmax values were calculated from the reaction rate during the linear phase of formaldehyde production, as determined by the slope of the fluorescence signal recorded.

[5] = biological target: T1, KDM4E; assay: Formaldehyde dehydrogenase-coupled demethylation assay, KDM4E; details: for kcat/KM: KDM4E; for kcat / Km: KDM4E catalytic domain, apparent, preliminary, 37 °C, mean±s.e.m., n=3; for kcat: FDH/NAD+-coupled assay; for Km: FDH/NAD+-coupled formaldehyde assay, 2OG 200 μM, Fe(II) 10 μM, ascorbate 100 μM
Procedure: as §5

[6] = biological target: T4, KDM3A (Homo sapiens, UniProt Q9Y4C1); assay: MALDI MS activity assay, recombinant KDM3A catalytic domain; details: KDM3A 2 μM, peptide 10 μM, 1 h, 37 °C, 2OG 100 μM, ascorbate 100 μM, Fe(II) 50 μM, 50 mM HEPES pH 7.5; MALDI-TOF MS, −14 Da shift
T4 construct: KDM3A515–1,317; His6 (N); made in house; host or cells: Sf9 cells
T4 sequence (Q9Y4C1 515-1317 limits assumed): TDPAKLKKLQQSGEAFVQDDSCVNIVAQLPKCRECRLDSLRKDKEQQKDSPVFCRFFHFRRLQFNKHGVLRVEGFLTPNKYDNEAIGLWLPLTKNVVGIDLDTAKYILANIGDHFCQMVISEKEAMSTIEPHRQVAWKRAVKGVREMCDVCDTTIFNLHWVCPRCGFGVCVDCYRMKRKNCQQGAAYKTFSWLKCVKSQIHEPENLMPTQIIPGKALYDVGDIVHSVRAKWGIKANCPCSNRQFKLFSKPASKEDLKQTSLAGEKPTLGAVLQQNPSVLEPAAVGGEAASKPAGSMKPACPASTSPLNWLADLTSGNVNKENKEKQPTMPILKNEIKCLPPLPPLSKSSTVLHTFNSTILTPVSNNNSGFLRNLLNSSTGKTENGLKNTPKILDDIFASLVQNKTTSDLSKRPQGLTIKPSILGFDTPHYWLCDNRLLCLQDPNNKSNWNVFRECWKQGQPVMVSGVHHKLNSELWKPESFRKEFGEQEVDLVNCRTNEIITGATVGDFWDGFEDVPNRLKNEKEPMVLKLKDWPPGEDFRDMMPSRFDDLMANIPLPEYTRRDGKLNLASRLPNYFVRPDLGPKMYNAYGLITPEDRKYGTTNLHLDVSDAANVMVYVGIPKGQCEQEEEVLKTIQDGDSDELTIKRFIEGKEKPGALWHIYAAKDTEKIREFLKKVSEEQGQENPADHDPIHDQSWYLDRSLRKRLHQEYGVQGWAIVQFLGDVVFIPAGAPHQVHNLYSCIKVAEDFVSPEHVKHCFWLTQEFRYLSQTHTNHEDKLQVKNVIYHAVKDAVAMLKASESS
Procedure: as §1, §3, §4

[7] = biological target: T2, KDM6B; assay: Formaldehyde dehydrogenase-coupled demethylation assay, KDM6B
Procedure: as §5

[8] = calculated from the average kcat and KM values, μM^−1 s^−1 for this quantity

Substance: A-Rme2a-TKQTARKSTGGKA [H3(1-15)R2me2a, 'natural' histone H3 peptide asymmetrically dimethylated at R2]
observed arginine demethylation activity [1]: +
demethylation, in words ([1]; KDM4E catalytic domain 2 μM): relatively good RDM substrate
observed arginine demethylation activity [2]: −
observed arginine demethylation activity [3]: +
demethylation, in words ([3]; KDM5C catalytic domain 2 μM): relatively good RDM substrate
kcat/KM, times lower than that for H3K4me3 ([4]; KDM5C): 14 times
kcat ([4]; KDM5C catalytic domain, apparent, preliminary, FDH/NAD+-coupled assay, 37 °C, mean±s.e.m., n=3): 12.0±0.7 × 10^−3 s^−1
Km ([4]; KDM5C catalytic domain, apparent, preliminary, FDH/NAD+-coupled formaldehyde assay, 37 °C, 2OG 200 μM, Fe(II) 10 μM, ascorbate 100 μM, mean±s.e.m., n=3): 19 ± 1.9 µM
kcat/KM ([4]; KDM5C, calculated from the average kcat and KM values, μM^−1 s^−1 for this quantity): 630.0 × 10^−6
kcat/KM [5]: 0.000114 µM⁻¹ s⁻¹
kcat [5]: 9.9±1.0 × 10^−3 s^−1
Km [5]: 86.9 ± 16.5 µM
kcat/KM [5, 8]: 114.0 × 10^−6
observed arginine demethylation activity [6]: −

Substance: H3(14-34)K27me3: 21-residue recognized histone H3 N-methylated-lysine peptide substrate for KDM6B
kcat ([7]; KDM6B catalytic domain, apparent, preliminary, FDH/NAD+-coupled assay, 37 °C, mean±s.e.m., n=3): 11.7±0.1 × 10^−3 s^−1
Km ([7]; KDM6B catalytic domain, apparent, preliminary, FDH/NAD+-coupled formaldehyde assay, 37 °C, 2OG 200 μM, Fe(II) 10 μM, ascorbate 100 μM, mean±s.e.m., n=3): 6.7 ± 0.6 µM
kcat/KM ([7]; KDM6B, calculated from the average kcat and KM values): 1,750.0 × 10^−6

Substance: SG-Rme2a-GKGGKGLGKGGA [H4(1-15)R3me2a, 'natural' histone H4 residues 1-15 peptide asymmetrically dimethylated at R3]
observed arginine demethylation activity [1]: +
observed arginine demethylation activity [2]: −
observed arginine demethylation activity [3]: +
kcat [5]: 2.1±0.1 × 10^−3 s^−1
Km [5]: 122 ± 10.1 µM
kcat/KM [5, 8]: 17.7 × 10^−6
observed arginine demethylation activity [6]: −

Substance: SG-Rme-GKGGKGLGKGGAK [H4 (1–15) R3me, 'natural' histone H4 peptide monomethylated at R3]
observed arginine demethylation activity [1]: −
observed arginine demethylation activity [2]: −
observed arginine demethylation activity [3]: −
observed arginine demethylation activity [6]: −

Further lines, results first:

observed arginine demethylation activity [1]: +
observed arginine demethylation activity [2]: −
observed arginine demethylation activity [3]: −
observed arginine demethylation activity [6]: −
Substance: SG-Rme2s-GKGGKGLGKGGA [H4 (1–15) R3me2s, 'natural' histone H4 residues 1-15 peptide symmetrically dimethylated at R3]

observed arginine demethylation activity [1]: −
observed arginine demethylation activity [2]: −
observed arginine demethylation activity [3]: −
observed arginine demethylation activity [6]: −
Substance: STGGKAP-Rme2a-KQLATKA [H3 (10–24) R17me2a, 'natural' histone H3 peptide asymmetrically dimethylated at R17]

observed arginine demethylation activity [1]: −
observed arginine demethylation activity [2]: −
observed arginine demethylation activity [3]: −
observed arginine demethylation activity [6]: −
Substance: STGGKAP-Rme-KQLATKA [H3 (10–24) R17me, 'natural' histone H3 peptide monomethylated at R17]

Source: PMC4931022, “Arginine demethylation is catalysed by a subset of JmjC histone lysine demethylases” (Nature Communications, 2016)
